Target: Glycogen synthase kinase-3 beta (Homo sapiens, UniProt P49841)
Assay: Biochemical hGSK-3Beta Assay: Compounds were tested for their ability to inhibit human Glycogen Synthase Kinase-3 beta (hGSK-3β) to phosphorylate biotin-[…](pS)EDEEE. Compounds were incubated with 0.5 μCi 33P-ATP, 10 μM ATP, 0.0125 U hGSK-3β (Upstate cell signaling solutions) and 1 μM substrate (biotin-[…](pS)EDEEE) in 50 mM HEPES, 10 mM MgCl2, 100 mM Na3VO4, 1 mM DTT, 0.0075% Triton, 2% DMSO (total volume 50 μL) for 30 minutes at room temperature. The incubation was stopped by addition of an equal volume of 100 mM EDTA, 4M NaCl. 80 μL of this mixture was added to streptavidin-coated Flash-plates (PerkinElmer). Following a wash step, 33P incorporation was quantified on a MicroBeta microplate liquid scintillation counter (Perkin Elmer). IC50s were determined by fitting a sigmoidal dose-response curve to the counts obtained at the different concentrations in GraphPad Prism.

Chain of Glycogen synthase kinase-3 beta (P49841 whole entry): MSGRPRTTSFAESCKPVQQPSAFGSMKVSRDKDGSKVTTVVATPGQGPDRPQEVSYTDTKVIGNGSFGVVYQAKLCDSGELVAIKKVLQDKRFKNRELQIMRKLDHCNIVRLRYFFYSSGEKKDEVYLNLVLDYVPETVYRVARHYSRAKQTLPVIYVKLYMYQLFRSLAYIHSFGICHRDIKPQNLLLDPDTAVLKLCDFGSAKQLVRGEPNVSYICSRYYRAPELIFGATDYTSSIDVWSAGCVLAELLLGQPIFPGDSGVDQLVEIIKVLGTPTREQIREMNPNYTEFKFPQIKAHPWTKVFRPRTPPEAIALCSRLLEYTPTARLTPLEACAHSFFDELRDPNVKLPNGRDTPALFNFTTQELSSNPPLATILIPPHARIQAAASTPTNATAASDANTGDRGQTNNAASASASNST

Structure (SMILES) | IC50 [nM]
N#Cc1ccc2c(c1)C(c1ccc3c(n1)CCCC3=O)C(=O)N2 (configuration not stated) | < 100
N#Cc1ccc2c(c1)C(c1ccc3c(n1)C(O)CCC3)C(=O)N2 (configuration not stated) | < 100

From ChEMBL document CHEMBL5725797, “Heterocyclic compounds and their use as glycogen synthase kinase-3 inhibitors” (2018)
